Assay results taken from US20220088007A1 (priority 2010, published 2022).
Where two headings read alike, the source gives them in different places.

Experiments:
[1] = Example 2 (NB-236): steady-state food-effect extension study of NB 8/90 tablets, plasma pharmacokinetics
Method: A phase I, open label, steady-state study was performed to assess the plasma pharmacokinetics of NB tablets under fed and fasted conditions. An extension of the study allowed for the evaluation of the effect of food on the pharmacokinetics of NB tablets.
Days 1-31 of the study were devoted to the primary investigation of metoprolol pharmacokinetics in the context of steady-state dosing with NB tablets. Subjects (n=18) received a metoprolol 50 mg IR tablet on Days 1 and 31. NB was dose escalated every week from a single NB 8/90 tablet per day on Day 3 to a maximum dose of NB 32/360 (two NB 8/90 tablets BID) starting on Day 24. In the clinic setting (Days 1-3 and 27-31), standardized meals were provided before dosing and pharmacokinetic sampling. These meals were moderate in fat and caloric content. Subjects were instructed to take study medication with food during the outpatient (Days 4-26) phase of the study.
Subjects enrolling in the optional extension continued BID dosing administration (with moderate meals) through Day 32. […] The evening dose on Day 33, study medication was given with food (“moderate” meal). For Day 34, subjects received their morning dose under the opposite condition from what they received on the morning of Day 33. […] For purposes of studying the effects of food, the comparisons were between Day 30 pharmacokinetics (“moderate” meal) and the fasted and high-fat meal conditions administered on Day 33 and Day 34.

clinical [2] = conditions: human
[3] = Example 3 (NB-239 vs NB-237): single dose NB 8/90 tablets, moderate-fat, moderate-calorie meal vs fasted, cross-study comparison; conditions: for Cmax: single dose two NB 8/90 tablets
[4] = Example 1 (NB-233): single-dose crossover food-effect study of NB 8/90 trilayer tablets, plasma pharmacokinetics; conditions: for Cmax between high-fat and fasted conditions (in words): 90% CIs within 80% to 125% range; for increase in Cmax: high-fat conditions compared to fasted conditions
clinical [5] = conditions: both, human
[6] = in vivo
[7] = human, in vivo
[8] = fed moderate-fat meal, mean ± SD
[9] = fed moderate-calorie, moderate-fat meal, mean ± SD
[10] = fed (high-fat meal), arithmetic mean ± SD

## O=C1CC[C@@]2(O)[C@H]3Cc4ccc(O)c5c4[C@@]2(CCN3CC2CC2)[C@H]1O5 [Naltrexone, naltrexone]
[1]; both, human, plasma, po, fasted, Day 33 or 34, mean ± SD
  AUC0-t: 7.07 ± 2.88 ng·h/mL
[1]; both, human, plasma, po, fed high-fat meal, Day 33 or 34, mean ± SD
  AUC0-t: 11.8 ± 4.68 ng·h/mL
[1]; both, human, plasma, po, fed moderate meal, Day 30, mean ± SD
  AUC0-t: 11.7 ± 4.45 ng·h/mL
[1]; both, human, plasma, po, Cmax, steady state, morning dose two NB 8/90 tablets fasted, Day 33 or 34, mean ± SD
  Cmax: 1.47 ± 0.71 ng/mL
[1]; both, human, plasma, po, Cmax, steady state, morning dose two NB 8/90 tablets fed high-fat meal, Day 33 or 34, mean ± SD
  Cmax: 2.84 ± 1.53 ng/mL
[1]; both, human, plasma, po, Cmax, steady state, two NB 8/90 tablets BID, fed moderate meal, Day 30, mean ± SD
  Cmax: 2.6 ± 1.02 ng/mL
[1]; both, human, plasma, po, Tmax, fasted, Day 33 or 34, median (minimum, maximum)
  Tmax: 0.75 h
[1]; both, human, plasma, po, Tmax, fed moderate meal, Day 30, median (minimum, maximum)
  Tmax: 2 h
[1]; fasted, Day 33 or 34, mean ± SD
  Cmin: 0.172 ± 0.0758 ng/mL
[1]; fed high-fat meal, Day 33 or 34, mean ± SD
  Cmin: 0.159 ± 0.0895 ng/mL
[1]; fed high-fat meal, Day 33 or 34, median (minimum, maximum)
  Tmax: 3.00 (1.25, 6.00) hr
[1]; fed moderate meal, Day 30, mean ± SD
  Cmin: 0.195 ± 0.105 ng/mL
[1]; high-fat, high-calorie meal
  lower Cmin versus the fasted condition: 12%
[1]; moderate-fat, moderate-calorie meal
  higher Cmin versus the fasted condition: 10%
[1]; steady state
  Cmin % MR, high-fat fed to fasted: 88.39%
  Cmin % MR, high-fat to moderate-fat: 80.15%
  Cmin % MR, moderate-fat fed to fasted: 110.04%
[1]; steady state, morning dose
  effect of changing meal from moderate-fat, moderate-calorie to high-fat, high-calorie (in words): no effect
Clinical [2]; plasma, oral
  AUC0-t: 8.3 ± 6.41 ng·h/mL
  AUC(0-inf): 8.55 ± 6.46 ng·h/mL
  Cmax: 1.34 ± 0.763 ng/mL
  Tmax: 1.27 h
[3]; [8]
  AUC0-t: 13.41 ± 6.93 ng·h/mL
  AUC0-∞: 13.63 ± 7.15 ng·h/mL
[3]; fed moderate-fat meal, median (minimum, maximum)
  Tmax: 2.00 (0.75, 6.00) hr
[3]; [9]
  Cmax: 2.65 ± 1.18 ng/mL
[4]; fasted, arithmetic mean ± SD
  AUC0-t: 7.98 ± 4.04 ng·h/mL
[4]; [10]
  AUC0-t: 16.42 ± 8.70 ng·h/mL
  AUC0-∞: 16.65 ± 8.70 ng·h/mL
[4]; fed (high-fat meal), median (minimum, maximum)
  Tmax: 2.00 (0.75, 6.00) hr
[4]; fed vs fasted
  median Tmax, fed vs fasted conditions (in words): similar
[4]; high-fat fed vs fasted
  AUC0-t Fed to Fasted % MR: 211.50%
[4]; plasma, single dose two NB 8/90 tablets, fed (high-fat meal), arithmetic mean ± SD
  Cmax: 4.00 ± 2.52 ng/mL
Clinical [5]; plasma, oral
  AUC(0-inf): 8.39 ± 4.26 ng·h/mL
  Tmax: 2 h

## CC(NC(C)(C)C)C(O)c1cccc(Cl)c1 (stereo not shown) [erythrohydrobupropion]
[4]
  Cmax between high-fat and fasted conditions (in words): comparable

## Oc1ccc2c3c1O[C@H]1[C@H](O)CC[C@@]4(O)[C@@H](C2)N(CC2CC2)CC[C@]314 [6β-naltrexol]
[1]; steady state, two NB 8/90 tablets
  effect of food (moderate-fat or high-fat meal) on exposure relative to the fasted state (in words): neither meal type appeared to affect
[4]
  increase in Cmax: 52%

## C[C@H](NC(C)(C)C)[C@@H](O)c1cccc(Cl)c1 [threohydrobupropion]
[4]
  increase in Cmax: 26%

## CC(NC(C)(C)C)C(=O)c1cccc(Cl)c1 (stereo not shown) [Bupropion, bupropion]
[1]; both, human, in vivo
  Cmin: 41.6 ± 10.4 ng/mL
[1]; both, human, in vivo, po
  AUC0-t: 965 ± 249 ng·h/mL
[1]; both, human, in vivo, po, Tmax
  Tmax: 1.99 h
[1]; steady state, morning dose two NB 8/90 tablets fasted, Day 33 or 34, mean ± SD
  Cmax: 131 ± 38.2 ng/mL
[1]; steady state, morning dose two NB 8/90 tablets fed high-fat meal, Day 33 or 34, mean ± SD
  Cmax: 167 ± 43.4 ng/mL
[1]; steady state, two NB 8/90 tablets BID, fed moderate meal, Day 30, mean ± SD
  Cmax: 156 ± 52.5 ng/mL
[6]; both, human
  AUC0-t Fed to Fasted % MR: 139.50%
  t1/2 apparent terminal elimination half-life: 20.44 h
[6]
  apparent terminal elimination t1/2, fed vs fasted conditions (in words): similar
  median Tmax, fed vs fasted conditions (in words): one hour shorter
Clinical [2]; in vivo
  Tmax: 2.07 h
[3]; fasted, mean ± SD
  AUC0-t: 1496.01 ± 323.04 ng·h/mL
  AUC0-∞: 1574.93 ± 346.49 ng·h/mL
  t1/2: 19.83 ± 3.24 h
  Cmax: 156 ± 36.9 ng/mL
[3]; [8]
  AUC0-∞: 1384.85 ± 330.19 ng·h/mL
[3]; [9]
  Cmax: 154 ± 55.4 ng/mL
[7]
  AUC0-t % MR, fed (moderate-fat) to fasted: 91.55%
[4]; fasted, arithmetic mean ± SD
  AUC0-t: 1550.91 ± 549.08 ng·h/mL
Clinical [5]; in vivo
  AUC(0-inf): 1620 ± 574 ng·h/mL
  Cmax: 161 ± 52.1 ng/mL

## C[C@H]1NC(C)(C)CO[C@]1(O)c1cccc(Cl)c1 [hydroxybupropion]
[4]
  Cmax between high-fat and fasted conditions (in words): comparable
